Values of other authors in patent US20100015233A1, “anti-parasitic compositions” (priority 2006, published 2010).
Converted amounts (≈) assume the structure as drawn.

Experiments:
[1] = in vivo

| SMILES | half-life [1] [h] | solubility in water [µg/mL] |
| --- | --- | --- |
| CCCCN(CCCC)CC(O)c1cc(Cl)cc2c1-c1ccc(Cl)cc1/C2=C/c1ccc(Cl)cc1 (centres unmarked) [Lumefantrine] | 72 to 140 | – |
| C[C@@H]1CC[C@H]2[C@@H](C)C(=O)O[C@@H]3O[C@@]4(C)CC[C@@H]1[C@]32OO4 [artemisinin] | – | 84 (≈ 298 µM) |
